Where two headings read alike, the source gives them in different places.
Assays:
[1] = molecular target: T1, recombinant human β-secretase (Homo sapiens, UniProt P56817); assay: Determination of β-secretase inhibitory activity (BACE-1 FRET assay Kit); type: biochemical; conditions: for IC50: recombinant human β-secretase, fluorescent substrate peptide, 1 hour, read-out: IC50 (μM) Test example 2 (β-secretase inhibitory activity)
T1 construct: purchased Invitrogen
Procedure: Pharmacological Test Example 2: Determination of β-Secretase Inhibitory Activity
The β-secretase inhibitory activity was measured with BACE-1 FRET assay Kit (Invitrogen). The test compounds were prepared using DMSO at 30-fold of their final concentrations and dissolved so that the DMSO concentration would be 10%. To each of the solutions, an equal volume of a recombinant human β-secretase (1 U/mL) dissolved in the assay buffer and an equal volume of fluorescent substrate peptide (2.5 nM) were added and the solutions were left to stand for 1 hour. The fluorescence intensity was measured with a fluorescence plate reader (excitation wavelength: 545 nm; emission wavelength: 590 nm).
The final concentration of each compound at the time of measurement was set at 0.1, 0.3, 1, 3, and 10 μM, at 0.3, 1, 3, 10, and 30 μM, or at 1, 3, 10, 30, and 100 μM.

Aβ 1-42 = molecular target: T2, Aβ 1-42 (Homo sapiens, UniProt P05067); assay: Determination of Aβ aggregation inhibitory activity (thioflavin T fluorescence); type: biochemical; conditions: Aβ 1-42, 37° C. for 24 hours, thioflavin T; read-out: IC50 (μM) Test example 3 (Aβ aggregation inhibitory activity)
T2 construct: Aβ 1-42 (Peptide Institute, Inc.) was dissolved in 0.3% ammonia water; purchased Peptide Institute, Inc
T2 sequence (P05067 672-713): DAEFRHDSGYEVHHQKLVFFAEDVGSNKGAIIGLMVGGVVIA
Procedure: Pharmacological test example 3: Determination of Aβ aggregation inhibitory activity
Aβ 1-42 (Peptide Institute, Inc.) was dissolved in 0.3% ammonia water so that the concentration would be 0.5 mM and then diluted with PBS to 20 μM. The test compounds were prepared using DMSO at 100-fold of their final concentrations and adjusted so that the DMSO concentration would be 2%. The Aβ solution and each of the test compound solutions were mixed at an equivalent ratio and the mixtures were incubated at 37° C. for 24 hours. To each of the mixtures, an equal volume of a thioflavin T solution adjusted with a 100 mM Tris-glycine buffer (pH 8.5) to 6 μM was added. The fluorescence intensity was measured with a fluorescence plate reader (excitation wavelength: 440 nm; emission wavelength: 480 nm).
(§1) The final concentration of each compound at the time of measurement was set at 0.1, 0.3, 1, 3, and 10 μM. The sample to which only DMSO was added was used as a negative control and its fluorescence intensity was taken as 0% inhibitory activity.

[2] = molecular target: recombinant three-repeat microtubule-binding domain (3R-MBD) of tau protein (Homo sapiens, UniProt P10636); assay: Determination of tau aggregation inhibitory activity (heparin-induced, thioflavin T fluorescence; electron microscope); type: biochemical; conditions: for IC50: 3R-MBD tau 10 μM, heparin 10 μM, 37° C. for 16 hours, thioflavin T, read-out: IC50 (μM) Test example 1 (tau aggregation inhibitory activity)
recombinant three-repeat microtubule-binding domain (3R-MBD) of tau protein, sequence (P10636 186-279 isoform P10636-2 limits assumed): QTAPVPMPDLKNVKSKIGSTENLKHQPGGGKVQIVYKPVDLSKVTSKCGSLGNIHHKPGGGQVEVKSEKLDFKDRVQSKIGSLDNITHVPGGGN
Procedure: Pharmacological Test Example 1: Determination of Tau Aggregation Inhibitory Activity
A recombinant three-repeat microtubule-binding domain (3R-MBD) of tau protein was expressed in E. coli and was purified and used for the experiment. The purified tau solution was diluted with a 50 mM Tris-HCl buffer (pH 7.6) to a final concentration of 10 μM. The test compounds were prepared using dimethylsulfoxide (DMSO) at 20-fold of their final concentrations and added to the plate so that the DMSO concentration would be 5%. Heparin was added to the plate so that the final concentration would be 10 μM and the plate was left to stand at 37° C. for 16 hours. Thioflavin T was added to the plate so that the concentration would be 10 μM and the fluorescence intensity was measured with a fluorescence plate reader (PerkinElmer, Inc.) (excitation wavelength: 440 nm; emission wavelength: 480 nm).
as §1
The samples were placed on a grid and washed with distilled water. A 1 mM phosphotungstic acid aqueous solution was added to the samples. The samples were washed, dried overnight, and observed.

[3] = Evaluation of in vivo pharmacokinetics (blood and brain concentrations, LC-MS/MS); conditions: male, rat, SD rats, brain
Procedure: Pharmacological test example 4: Evaluation of in vivo pharmacokinetics
To SD rats (male, 7 weeks old), the test compound was orally administered (p. o.) at an amount of 50 mg/kg bw or intravenously administered (i.v.) at an amount of 1 mg/kg bw and the concentrations in the blood and brain were measured up to 3 hours. The administration vehicle was an 80% PEG 400 aqueous solution. The blood was collected under isoflurane inhalational anesthesia and the brain was harvested after the rats were sacrificed. The plasma was separated from the blood. The brain was homogenized after addition of a three-fold volume of PBS and then methanol was added thereto. Thus the prepared test samples were subjected to measurement. The measurement was performed by LC-MS/MS (Applied Biosystems and Waters).
The blood concentration changes of the compounds of Example 2 and Example 2 (2) ((1E,6E)-1-(1H-indol-6-yl)-7-[2-methoxy-4-(2-pyridylmethoxy)phenyl]hepta-1,6-diene-3,5-dione) after oral administration (p.o.) thereof are shown in FIG. 2. The brain concentration changes of the compounds after intravenous administration (i.v.) and oral administration (p.o.) thereof are shown in Table 2.

T1 sequence (P56817 46-501): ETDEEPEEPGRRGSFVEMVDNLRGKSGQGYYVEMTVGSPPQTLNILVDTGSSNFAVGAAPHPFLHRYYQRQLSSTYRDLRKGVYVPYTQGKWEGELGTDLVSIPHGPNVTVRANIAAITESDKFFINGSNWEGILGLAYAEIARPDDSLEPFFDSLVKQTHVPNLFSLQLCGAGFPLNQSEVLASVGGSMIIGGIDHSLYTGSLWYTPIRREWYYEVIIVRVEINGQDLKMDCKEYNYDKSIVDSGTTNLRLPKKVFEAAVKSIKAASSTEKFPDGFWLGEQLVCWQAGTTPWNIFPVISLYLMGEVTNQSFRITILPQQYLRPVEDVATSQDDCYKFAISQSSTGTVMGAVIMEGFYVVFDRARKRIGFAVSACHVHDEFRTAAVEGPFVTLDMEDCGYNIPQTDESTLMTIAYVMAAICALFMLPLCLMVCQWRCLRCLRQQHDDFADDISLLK

| IC50 [1] [µM] | melting point [°C] | IC50 (Aβ 1-42) [µM] | IC50 [2] [µM] | concentration at 5 min ([3]; intravenous 1 mg/kg bw, 5 min, read-out: brain concentration i.v. 5 min) [ng/mL] | concentration at 180 min ([3]; intravenous 1 mg/kg bw, read-out: brain concentration i.v. 180 min) [ng/mL] | concentration at 60 min ([3]; oral 50 mg/kg bw, 60 min, read-out: brain concentration p.o. 60 min) [ng/mL] | concentration at 180 min ([3]; oral 50 mg/kg bw, read-out: brain concentration p.o. 180 min) [ng/mL] | inhibition at 1 µM ([1]; compound at 1 μM) [%] | tau aggregation inhibitory activity at 1 μM ([2]; compound at 1 μM) [%] | SMILES |
| --- | --- | --- | --- | --- | --- | --- | --- | --- | --- | --- |
| 1.06 | 192 to 198 | 4.33 | 1.46 |  |  |  |  |  |  | CN1CCN(c2ccc(/C=C/c3cc(/C=C/c4ccc5cc[nH]c5c4)[nH]n3)cc2)CC1 [Example 102, 5-[(1E)-2-(1H-indol-6-yl)ethenyl]-3-[(1E)-2-[4-(4-methylpiperazin-1-yl)phenyl]ethenyl]-1H-pyrazole] |
| 4.39 | 86 to 91 | > 10 | 1.37 |  |  |  |  |  |  | COc1cc(OCc2ccccc2)ccc1/C=C/c1cc(/C=C/c2ccc3cc[nH]c3c2)[nH]n1 [Example 63, 3-[(1E)-2-(4-benzyloxy-2-methoxyphenyl)ethenyl]-5-[(1E)-2-(1H-indol-6-yl)ethenyl]-1H-pyrazole] |
|  |  |  |  | 5.15 ± 3.34 | 0.93 ± 0.67 | 0 | 18 ± 30.8 |  |  | COc1cc(OCc2ccccn2)ccc1/C=C/C(=O)CC(=O)/C=C/c1ccc2cc[nH]c2c1 [Example 2 (2), (1E,6E)-1-(1H-indol-6-yl)-7-[2-methoxy-4-(2-pyridylmethoxy)phenyl]hepta-1,6-diene-3,5-dione] |
|  | 195 to 197 | 1.9 |  |  |  |  |  | 12 | 0 | COc1cc(OCc2ccccn2)ccc1/C=C/c1cc(/C=C/c2ccc(OCc3ccccn3)cc2OC)[nH]n1 [Example 110, 3,5-bis[(1E)-2-[2-methoxy-4-(2-pyridylmethoxy)phenyl]ethenyl]-1H-pyrazole] |
| 0.22 | 132 to 136 | 2.45 | 1.46 |  |  |  |  |  |  | CN1CCCN(c2ccc(/C=C/c3cc(/C=C/c4ccc5cc[nH]c5c4)[nH]n3)c(Br)c2)CC1 [Example 72, 3-[(1E)-2-[2-bromo-4-(4-methyl-1,4-diazepan-1-yl)phenyl]ethenyl]-5-[(1E)-2-(1H-indol-6-yl)ethenyl]-1H-pyrazole] |
